Measured values taken from patent publication US7332623B2 (Kaohsiung Medical University, priority 2003, dated 2008).
Entries after “also recorded” stand apart in the source; their conditions may differ. Read-outs that look alike come from different tables or passages of the source. Marks after values point to notes of the source that are not given here.

Columns and labels:
Breast cancer cell MCF-7 = assay: Preliminary cytotoxicity test; type: cell-based, human
CNS cancer cell SF-268 = assay: Preliminary cytotoxicity test; type: cell-based, human
[1] = system: Non-small cell Lung cancer cell NCI-H460; assay: Preliminary cytotoxicity test; type: cell-based, human
Hep2,2,15 = conditions: Hep2,2,15, Table 1; cited from earlier work
[2] = system: NCI (NCI-H661): human lung large cell carcinoma; assay: In vitro anticancer assay (cytotoxicity), solid tumor cells
KB cell = conditions: Table 1; cited from earlier work
topoisomerase I = target: T1, topoisomerase I (Homo sapiens, UniProt P11387); assay: Topoisomerase I assay, cleavage of supercoiled pGEM9zf(−) DNA, gel electrophoresis; type: biochemical; conditions: for topo I inhibitor, overall conclusion: from FIGS. 1 and 2
T1 sequence (P11387 1-765): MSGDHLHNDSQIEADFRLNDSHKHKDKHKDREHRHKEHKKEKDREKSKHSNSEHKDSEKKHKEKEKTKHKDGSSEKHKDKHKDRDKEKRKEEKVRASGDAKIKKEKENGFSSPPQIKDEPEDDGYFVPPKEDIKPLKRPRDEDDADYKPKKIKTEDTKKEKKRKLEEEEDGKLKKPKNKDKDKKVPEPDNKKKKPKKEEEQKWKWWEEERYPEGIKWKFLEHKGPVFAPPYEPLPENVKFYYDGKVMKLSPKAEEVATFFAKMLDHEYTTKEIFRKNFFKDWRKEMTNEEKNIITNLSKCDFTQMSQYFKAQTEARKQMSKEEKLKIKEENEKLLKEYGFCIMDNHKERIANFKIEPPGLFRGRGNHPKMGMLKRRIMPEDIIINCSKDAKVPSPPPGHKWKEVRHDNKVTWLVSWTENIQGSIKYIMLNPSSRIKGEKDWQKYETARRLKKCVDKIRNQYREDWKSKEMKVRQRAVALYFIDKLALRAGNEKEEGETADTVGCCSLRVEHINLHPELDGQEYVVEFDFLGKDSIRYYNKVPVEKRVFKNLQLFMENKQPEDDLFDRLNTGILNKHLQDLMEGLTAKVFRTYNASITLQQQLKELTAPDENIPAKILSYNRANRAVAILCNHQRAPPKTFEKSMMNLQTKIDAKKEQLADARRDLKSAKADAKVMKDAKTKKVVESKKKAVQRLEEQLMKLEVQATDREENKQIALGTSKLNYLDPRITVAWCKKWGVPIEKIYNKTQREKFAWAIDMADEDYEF

[3] = system: KB: human oral epidermoid carcinoma; assay: In vitro anticancer assay (cytotoxicity), solid tumor cells
[4] = system: Hela: human cervix epitheloid carcinoma; assay: as above
[5] = system: KB: human oral epidermoid carcinoma
[6] = system: Hela: human cervix epitheloid carcinoma
[7] = system: DLD (DLD-1): human colon adenocarcinoma
[8] = system: Prostate Cancer cell lines; assay: NCI panel, average of cell lines; conditions: Homo sapiens, read-out: cytotoxicity GI50, average value of all the cancer cell lines
CNS Cancer cell lines = assay: NCI panel, average of cell lines; conditions: Homo sapiens, read-out: cytotoxicity GI50, average value of all the cancer cell lines
Breast Cancer cell lines = assay: NCI panel, average of cell lines; conditions: Homo sapiens, read-out: cytotoxicity GI50, average value of all the cancer cell lines
K-562 cells = assay: Cell cycle distribution by flow cytometry; type: cell-based, human; conditions: K-562, 72 hrs
Protocol: Samples of 1×10^6 Hep G2 cells were plated on a 6 cm tissue culture dish, and the cells were allowed to recover 24 hrs before any treatment. Thereafter, DMSO or a test compound (1 μM, 10 μM or 50 μM) was added to the cells for 1 hr in complete medium at 37° C., washed twice with PBS, and incubated in fresh media for the incubation time. Cell were harvested with trypsin and washed twice with PBS. Samples were fixed in 70% ethanol and stored at 4° C. for at least 24 hrs and then washed once with McIlvaine's buffer (0.2M Na2HPO4, 0.1M citric acid, pH=7.5) and once again with PBS. Samples were stained with PI (propidium iodide) staining solution (PBS containing 100 μg/ml, RNase A and 10 μg/ml PI [Sigma]), processed on a Coulter Elite flow cytometry, and the data analyzed with the Mutiplus AV program.

Melanoma cell lines = assay: NCI panel, average of cell lines; conditions: Homo sapiens, read-out: cytotoxicity GI50, average value of all the cancer cell lines
[9] = system: Non-Small Cell Lung Cancer cell lines; assay: NCI panel, average of cell lines; conditions: Homo sapiens, read-out: cytotoxicity GI50, average value of all the cancer cell lines
Leukemia cell lines = assay: NCI panel, average of cell lines; conditions: Homo sapiens, read-out: cytotoxicity GI50, average value of all the cancer cell lines
Renal Cancer cell lines = assay: NCI panel, average of cell lines; conditions: Homo sapiens, read-out: cytotoxicity GI50, average value of all the cancer cell lines
[10] = system: Ovarian Cancer cell lines; assay: NCI panel, average of cell lines; conditions: Homo sapiens, read-out: cytotoxicity GI50, average value of all the cancer cell lines
Colon Cancer cell lines = assay: NCI panel, average of cell lines; conditions: Homo sapiens, read-out: cytotoxicity GI50, average value of all the cancer cell lines

Compound: 2-(6-(2-thioanisyl)-3-hexen-1,5-diynyl)benzonitrile [Compound 31]
- Growth percentage (Breast cancer cell MCF-7): 62%
- Growth percentage (CNS cancer cell SF-268): 164%
- Growth percentage [1]: 100%

Compound: 2-(6-(2-xylenyl)-3-hexen-1,5-diyne)benzonitrile [Compound 24]
- Growth percentage (Breast cancer cell MCF-7): 101%
- Growth percentage (CNS cancer cell SF-268): 111%
- Growth percentage [1]: 129%

Compound: N#Cc1ccccc1C#C/C=C\C#CCOC1CCCCO1 (centres unmarked) [Compound 1, 2-(7-(Tetrahydropyranyloxy)-3(Z)-hepten-1,5-diynyl)-benzonitrile]
- IC50 (Hep2,2,15): > 10 µM
- IC50 Values of Cytotoxicities [2]: —* (“—” means IC50 > 20 μg/ml)

Compound: CCCCC#C/C=C\C#Cc1ccccc1C#N [Compound 3, 2-(3(Z)-Decen-1,5-diynyl)benzonitrile]
- IC50 (KB cell): < 0.01 µM

Compound: CCCCCC#C/C=C\C#Cc1ccccc1C#N [Compound 4, 2-(3(Z)-Undecen-1,5-diynyl)benzonitrile]
- IC50 (Hep2,2,15): > 10 µM
- IC50 (KB cell): < 0.01 µM

Compound: CCCCC#C/C=C\C#Cc1ccccc1 [Compound 6, (3Z)-Decen-1,5-diynylbenzene]
- topo I inhibitor, overall conclusion (topoisomerase I): not Topo I inhibitors

Compound: N#Cc1ccccc1C#Cc1ccccc1C#CCOC1CCCCO1 (centres unmarked) [Compound 7, 2-(2-(3-Tetrahydro-pyranyl-5-oxy-1-propynylphenyl)ethynyl)benzonitrile]
- inhibition of topo I (topoisomerase I; 0.87 μM compound): untwisting DNA was revealed
- inhibition of topo I (topoisomerase I; 8.7 μM compound): no Topo I inhibition; also recorded: untwisting DNA was revealed
- inhibition of topo I (topoisomerase I; 87 μM compound): no Topo I inhibition; also recorded: untwisting DNA was revealed
- IC50 Values of Cytotoxicities [2]: — (“—” means IC50 > 20 μg/ml)

Compound: N#Cc1ccccc1C#Cc1ccccc1C#CCCCOC1CCCCO1 (centres unmarked) [Compound 8]
- inhibition of topo I (topoisomerase I; 0.87 μM compound): untwisting DNA was revealed
- inhibition of topo I (topoisomerase I; 8.7 μM compound): no Topo I inhibition; also recorded: untwisting DNA was revealed
- inhibition of topo I (topoisomerase I; 87 μM compound): no Topo I inhibition; also recorded: untwisting DNA was revealed
- IC50 Values of Cytotoxicities [2]: — (“—” means IC50 > 20 μg/ml)

Compound: CCCCC#Cc1ccccc1C#Cc1ccccc1C#N [Compound 9, 2-(2-(2-Hexynylphenyl)ethynyl)benzonitrile]
- IC50 Values of Cytotoxicities [2]: — (“—” means IC50 > 20 μg/ml)

Compound: CCCCCC#Cc1ccccc1C#Cc1ccccc1C#N [Compound 10, 2-(2-(2-Heptynylphenyl)ethynyl)benzonitrile]
- IC50 Values of Cytotoxicities [3]: — (“—” means IC50 > 20 μg/ml)
- IC50 Values of Cytotoxicities [4]: — (“—” means IC50 > 20 μg/ml)

Compound: CCCCCCC#C/C=C\C#Cc1ccc(C#C/C=C\C#CCCCCCC)cc1 [Compound 11, 1,4-Bis-(3-(Z)-Dodecen-1,5-diynyl)benzene]
- topo I inhibitor, overall conclusion (topoisomerase I): not topo I inhibitors

Compound: CCCCCCC#C/C=C\C#Cc1ccc(-c2ccc(C#C/C=C\C#CCCCCCC)cc2)cc1 [Compound 12, 4,4′-Bis-(3-(Z)-Dodecen-1,5-diynyl)biphenyl]
- topo I inhibitor, overall conclusion (topoisomerase I): not topo I inhibitors

Compound: CCCCC#C/C=C\C#Cc1ccc(Cl)cc1 [Compound 13]
- IC50 Values of Cytotoxicities [5]: — (key: “—” means IC50 > 20 μg/ml)
- IC50 Values of Cytotoxicities (Hepa: human hepatoma): — (key: “—” means IC50 > 20 μg/ml)

Compound: CCCCCCC#C/C=C\C#Cc1ccc(C(F)(F)F)cc1 [Compound 18, 4-(3-(Z)-Dodecen-1,5-diynyl)trifluoromethylbenzene]
- topo I inhibitor, overall conclusion (topoisomerase I): displayed topo I inhibitory activities

Compound: CCCCCCC#C/C=C\C#Cc1cccc(C(F)(F)F)c1 [Compound 19, 3-(3-(Z)-Dodecen-1,5-diynyl)trifluoromethylbenzene]
- IC50 Values of Cytotoxicities [4]: — (“—” means IC50 > 20 μg/ml)

Compound: CCCCCCC#C/C=C\C#Cc1ccc([N+](=O)[O-])cc1 [Compound 21, 4-nitro-1-(3-(Z)-dodecen-1,5-diynyl)benzene]
- IC50 ([3]; Homo sapiens, read-out: IC50 Values of Cytotoxicities): > 20 µg/mL

Compound: CCCCCCC#C/C=C\C#Cc1ccccc1C(=O)O [Compound 22, 2-(3-(Z)-Dodecen-1,5-diynyl)benzoate]
- IC50 Values of Cytotoxicities [2]: — (“—” means IC50 > 20 μg/ml)

Compound: CCCCCCC#C/C=C\C#Cc1ccc(C(C)=O)cc1 [Compound 23, 4-(3-(Z)-Dodecen-1,5-diynyl)acetophenone]
- topo I inhibitor, overall conclusion (topoisomerase I): displayed topo I inhibitory activities
- IC50 Values of Cytotoxicities [6]: — (key: “—” means IC50 > 20 μg/ml)
- IC50 Values of Cytotoxicities [7]: — (key: “—” means IC50 > 20 μg/ml)
- IC50 Values of Cytotoxicities (Hepa: human hepatoma): — (key: “—” means IC50 > 20 μg/ml)

Compound: COc1ccc(C#CC=CC#Cc2ccccc2C#N)cc1 [Compound 25]
- Growth percentage (Breast cancer cell MCF-7): 90%
- Growth percentage (CNS cancer cell SF-268): 91%
- Growth percentage [1]: 48%

Compound: N#Cc1ccccc1C#CC=CC#Cc1ccccn1 [Compound 27, 2-(6-(2-pyridinyl)-3-hexen-1,5-diynyl)benzonitrile]
- GI50 [8]: 21.2 µM
- GI50 (CNS Cancer cell lines): 20.9 µM
- GI50 (Breast Cancer cell lines): 14.3 µM
- Growth percentage (Breast cancer cell MCF-7): 49%
- accumulation of G2/M stage cells (K-562 cells): an accumulation of G2/M stage cells
- GI50 (Melanoma cell lines): 14.2 µM
- GI50 [9]: 19.6 µM
- GI50 (Leukemia cell lines): 12.8 µM
- Growth percentage (CNS cancer cell SF-268): 83%
- GI50 (Renal Cancer cell lines): 21.7 µM
- Growth percentage [1]: 23* %
- GI50 [10]: 27.3 µM

Compound: Cc1ccc(C#CC=CC#Cc2ccccc2C#N)cc1 [Compound 28, 2-(6-(4-tolyl)-3-hexen-1,5-diynyl)benzonitrile]
- Growth percentage (Breast cancer cell MCF-7): 80%
- Growth percentage (CNS cancer cell SF-268): 105%
- Growth percentage [1]: 96%

Compound: N#Cc1ccccc1C#CC=CC#Cc1cccs1 [Compound 29, 2-(6-(2-thienyl)-3-hexen-1,5-diynyl)benzonitrile]
- Growth percentage (Breast cancer cell MCF-7): 49%
- Growth percentage (CNS cancer cell SF-268): 96%
- Growth percentage [1]: 34%

Compound: N#Cc1ccccc1C#CC=CC#Cc1cnccn1 [Compound 30, 2-(6-(2-pyrazinyl)-3-hexen-1,5-diynyl)benzonitrile]
- GI50 [8]: 33.6 µM
- GI50 (CNS Cancer cell lines): 32.2 µM
- GI50 (Breast Cancer cell lines): 33.3 µM
- Growth percentage (Breast cancer cell MCF-7): 73%
- accumulation of G2/M stage cells (K-562 cells): an accumulation of G2/M stage cells
- GI50 (Melanoma cell lines): 18.7 µM
- GI50 (Colon Cancer cell lines): 7.54 µM
- GI50 [9]: 11.8 µM
- GI50 (Leukemia cell lines): 5.05 µM
- Growth percentage (CNS cancer cell SF-268): 84%
- GI50 (Renal Cancer cell lines): 27 µM
- Growth percentage [1]: 8* %
- GI50 [10]: 38.1 µM

Compound: N#Cc1ccccc1C#CC=CC#Cc1ccccc1N [Compound 32, 2-[6-(o-anilinyl)-3-hexen-1,5-diynyl]benzonitrile]
- GI50 [8]: 3.13 µM
- GI50 (CNS Cancer cell lines): 9.44 µM
- GI50 (Breast Cancer cell lines): 2 µM
- Growth percentage (Breast cancer cell MCF-7): 36%
- accumulation of G2/M stage cells (K-562 cells): an accumulation of G2/M stage cells
- GI50 (Melanoma cell lines): 0.77 µM
- GI50 (Colon Cancer cell lines): 0.47 µM
- GI50 [9]: 1.7 µM
- GI50 (Leukemia cell lines): 0.43 µM
- Growth percentage (CNS cancer cell SF-268): 27* %
- GI50 (Renal Cancer cell lines): 0.66 µM
- Growth percentage [1]: 8* %
- GI50 [10]: 1.55 µM

Compound: N#Cc1ccccc1C#CC=CC#Cc1ccc(N)cc1 [Compound 33, 2-[6-(p-anilinyl)-3-hexen-1,5-diynyl]benzonitrile]
- Growth percentage (Breast cancer cell MCF-7): 100%
- Growth percentage (CNS cancer cell SF-268): 92%
- Growth percentage [1]: 94%

Compound: FC(F)(F)c1ccc(C#Cc2ccccc2C#Cc2ccc(C(F)(F)F)cc2)cc1 [Compound 42]
- Growth percentage (Breast cancer cell MCF-7): 37%
- Growth percentage (CNS cancer cell SF-268): 55%
- Growth percentage [1]: 78%

Compound: CC[C@@]1(O)C(=O)OCc2c1cc1n(c2=O)Cc2cc3ccccc3nc2-1 [camptothecin, reference compound]
- inhibition of topo I (topoisomerase I): less topo I inhibitory activity; also recorded: observable inhibition of topo I
